Experimental data reported in patent US20100150985A1, “Dental Implant, Endodontic Instrument, and Dental Filling Material Coated with a Peptide-Based Antimicrobial and Methods of Using and Making the Same” (priority 2008, published 2010).

What was measured:
Staphylococcus aureus = assay: in-vitro assay of immobilized peptide on 316L stainless steel pins; assay type: cell-based; conditions: peptide covalently bonded to parylene coated stainless steel pins, after ethylene oxide sterilization; data not shown
Text: Medical standard alloy 316L stainless steel pins were coated with an antimicrobial peptide layer to determine the efficacy of an immobilized antimicrobial peptide. The pins were coated with a tie layer. A parylene coating containing a reactive molecule specific for the N-terminus region of the peptide (“Photopolymer”) was then applied over the tie layer. The peptide WLBU-2 (SEQ ID NO. 179) was applied to the parylene coating and exposed to UV light to facilitate covalent bonding of the peptide with the parylene coating. Parylene coated stainless steel pins and non-coated stainless steel pins were used as controls. All samples and controls were subjected to ethylene oxide sterilization. The coated samples were placed in 75% relative humidity overnight.

[1] = retention of antimicrobial/biological activity after sterilization; conditions: peptide coated on a substrate, ethylene oxide sterilization
Text: In a useful embodiment of the present invention, the antimicrobial peptides may retain antibacterial activity after a dental device coated with the antimicrobial, peptide is sterilized.

Substance: RRWVRRVRRVWRRVVRVVRRWVVRR (RRWVRRVRRVWRRVVRVVRRWVRR; Artificial peptide derived from HIV-1) [WLBU-2, Lytic Base Unit peptide]
- efficacy of immobilized antimicrobial peptide (Staphylococcus aureus): efficacy against Staphylococcus aureus
- antimicrobial activity after sterilization [1]: retained antimicrobial activity
